Patent US5508275A, “Lipid-selective antioxidants and their preparation and use” (Hoechst Aktiengesellschaft, priority 1990, dated 1996)
Structures can show the parent of a compound that is named as a salt.

Assays:
[1] = Solubility in water and olive oil (Method III)
Description: a) Preparation of olive oil or aqueous solutions. 1 ml of olive oil or I ml of double-distilled water (or dilute NaOH pH=7.6) was added to 1 mg or 10 mg or 50 mg of the respective compound at 37° C. and it was checked whether a clear solution was obtained. The optionally centrifuged and decanted olive oil solutions were heated for 5 minutes using a Bunsen burner and the degree of browning of the olive oil was determined. […] Samples having poor protective action are given a (*) in the table (see below).

[2] = test system: thrombus formation in rats; test: Laser-induced thrombosis in rats in vivo (Method VIII); design: species or system rat; conditions: 30 mg/kg oral, laser induction 60 min after administration
Description: The experimental procedure was carried out in every detail as described in U.S. Pat. No. 4,694,024. Laser induction took place 60 min after oral administration of the antioxidants.

[3] = Inhibition of the oxidation of lipids: SA-PC in cyclohexane (Method IV); assay type: biochemical; conditions: 37° C., absorption at 234 nm
Description: Oxidation of 1-stearoyl-2-arachidonoylphosphatidylcholine (SA-PC) in cyclohexane (37° C.). 100 mcl of a SA-PC solution (10 mg/ml of CHCl3) were evaporated by blowing (argon) and the residue was taken up in 1 ml of cyclohexane. After adding an amount of antioxidant which would also dissolve in olive oil (cf. Table 1), the absorption was measured at 234 nm (Perkin Elmer 5528 spektrophotometer, Uberlingan, FRG) and the solvent was then evaporated by blowing with air. After a fur%her 24 hours standing in an open vessel, the residue was again dissolved in i ml of cyclohexane and the absorption at 234 nm was measured as a measurement of the oxidized SA-PC.

[4] = Use as an additive in frying fat: color change of butter (Method II); conditions: 1% (weight/weight) in butter
Description: Use as an additive in frying fat: Samples of commercially available German non-blended butter were melted and in each case 1% (weight/weight) of BHT (=butylated hydroxytoluene) or 2,6-di-tert.-butyl-4-(7-nonynoyl)-phenol [=compound according to Example 17] or ethyl 2-(3,5-di-tert.-butyl-4-hydroxybenzyl)-3-oxo-docosanoate [=compound according to Example 18] or N-octadecyl-DL-α-lipoic acid amide [=compound according to Example 52] was added and the mixture was used in the customary manner as frying fat. […] The better protective action of the […] probably comes about as a result of their lipophilic side chains and, therefore, improved lipophilic interaction. The advantageous action of N-octadecyl-DL-α-lipoic acid amide is particularly surprising, although this preparation has no recognizable antioxidative component.

[5] = olive oil, organic solvent or mixture

Compound | solubility [1, 5] [µg/mL] | solubility ([1]; water) [µg/mL] | Reduction of thrombus formation [2] [%] | prevention of the oxidation of SA-PC, reduced dithiol vs. corresponding oxidized dithio compounds [3] | color change of frying fat after the frying procedure [4] | suitability for use in aqueous oil emulsions owing to solubility properties [1]
O=C(O)CCCC[C@@H](S)CCS (racemic) [Dihydrolipoic acid, Na salt, Dihydrolipoic acid, reference compound] | < 100 | > 10000 |  |  |  | 
CCCCCCCCCCCCCCCCCCNC(=O)CCCCC1CCSS1 (racemic) [Example 52, N-octadecyl-DL-α-lipoic acid amide] | > 10000 | < 100 | 14 | possible to prevent the oxidation of SA-PC Just as effectively | substantially lower color change | 
O=C(O)C(S)C(S)C(=O)O (stereo not shown) [2,3-Mercaptosuccinic acid, reference compound] | < 100 | > 10000 |  |  |  | 
CC(C)(Sc1cc(C(C)(C)C)c(O)c(C(C)(C)C)c1)Sc1cc(C(C)(C)C)c(O)c(C(C)(C)C)c1 [4,4'-(Isopropylidenedithio)bis[2,6-di-tert.-butylphenol], reference compound] |  |  | 6 |  |  | 
Cc1c(C)c2c(c(C)c1O)CCC(C)(C(=O)O)O2 (stereo not shown) [6-Hydroxy-2,5,7,8-tetramethylchroman-2-carboxylic acid, reference compound] | < 100 | > 10000 |  |  |  | 
CCCCCCCCCCCCCCCC(=O)OC[C@H](O)[C@H]1OC(=O)C(O)=C1O [Ascorbyl palmitate, reference compound] | > 100 | < 100 |  |  |  | 
Cc1cc(C(C)(C)C)c(O)c(C(C)(C)C)c1 [BHT, butylated hydroxytoluene, reference compound] | > 10000 | < 100 |  |  | transformed into a viscous, dark brown material | 
O[C@H](CS)[C@@H](O)CS [Dithioerythritol, reference compound] | < 100 | > 10000 |  |  |  | 
Cc1c(C)c2c(c(C)c1O)CCC(C)(C(=O)NCCCNC(=O)CC[C@@H](C)[C@H]1CC[C@H]3[C@@H]4[C@H](O)C[C@@H]5C[C@H](O)CC[C@]5(C)[C@H]4C[C@H](O)[C@]13C)O2 (stereo partly shown) [Example 1] | > 10000 | > 100 | 16 |  |  | 
Cc1c(C)c2c(c(C)c1O)CCC(C)(C(=O)NCCO[C@H]1CC[C@@]3(C)[C@@H](C1)C[C@@H](O)[C@@H]1[C@@H]3C[C@H](O)[C@]3(C)[C@@H]([C@H](C)CCC(=O)O)CC[C@@H]13)O2 (stereo partly shown) [Example 3] | > 1000 | < 100 | 11 |  |  | 
CCCCCCNC(=O)C1(C)CCc2c(C)c(O)c(C)c(C)c2O1 (stereo not shown) [Example 4] | > 10000 | > 100 |  |  |  | 
CCCCCCC(=O)NCCCNC(=O)C1(C)CCc2c(C)c(O)c(C)c(C)c2O1 (stereo not shown) [Example 5] | > 10000 | < 100 |  |  |  | 
CCCCCCCCCCCCCCCCCCNC(=O)C1(C)CCc2c(C)c(O)c(C)c(C)c2O1 (stereo not shown) [Example 6] | > 10000 | < 100 |  |  |  | 
CCCCCCCCCCCCCCCC(=O)NCCCNC(=O)C1(C)CCc2c(C)c(O)c(C)c(C)c2O1 (stereo not shown) [Example 7] | > 10000 | < 100 |  |  |  | 
Cc1c(C)c2c(c(C)c1O)CCC(C)(C(=O)NC1CCCCC1)O2 (stereo not shown) [Example 8] | > 10000 | < 100 |  |  |  | 
CC(C)CCC[C@@H](C)[C@H]1CC[C@H]2[C@@H]3CC=C4C[C@@H](OCCOCc5cc(C(C)(C)C)c(O)c(C(C)(C)C)c5)CC[C@]4(C)[C@H]3CC[C@]12C [Example 13] | > 50000 | < 100 | 17 |  |  | 
CCCCCCC#CC(=O)c1cc(C(C)(C)C)c(O)c(C(C)(C)C)c1 [Example 17] | > 50000 | < 100 |  |  | substantially lower color change | 
CCCCCCCCCCCCCCCCCCCC(=O)C(Cc1cc(C(C)(C)C)c(O)c(C(C)(C)C)c1)C(=O)OCC (stereo not shown) [Example 18, ethyl 2-(3,5-di-tert.-butyl-4-hydroxybenzyl)-3-oxo-docosanoate] | > 50000 | < 100 |  |  | substantially lower color change | 
CC(C)(C)c1cc(C2SCCC(CCCCC(=O)O)S2)cc(C(C)(C)C)c1O (stereo not shown) [Example 19] | > 50000 | < 100 |  |  |  | 
CC(C)(C)OC(=O)CCCCC(CCSCc1cc(C(C)(C)C)c(O)c(C(C)(C)C)c1)SCc1cc(C(C)(C)C)c(O)c(C(C)(C)C)c1 (stereo not shown) [Example 20] | > 50000 | < 100 |  |  |  | 

Compound | solubility [1, 5] [µg/mL] | solubility ([1]; water) [µg/mL] | Reduction of thrombus formation [2] [%] | prevention of the oxidation of SA-PC, reduced dithiol vs. corresponding oxidized dithio compounds [3] | color change of frying fat after the frying procedure [4] | suitability for use in aqueous oil emulsions owing to solubility properties [1]
CCCCCCCCCCCCCCCCCCOCC(O)COCc1cc(C(C)(C)C)c(O)c(C(C)(C)C)c1 (stereo not shown) [Example 21] | > 50000 | < 100 |  |  |  | 
CCCCCCCCCCCCCCCCCCOCC(CO)OC(=O)c1cc(C(C)(C)C)c(O)c(C(C)(C)C)c1 (stereo not shown) [Example 22] | > 50000 | < 100 |  |  |  | 
CCCCCCCCCCCCCCCCCCOCC(O)COC(=O)c1cc(C(C)(C)C)c(O)c(C(C)(C)C)c1 (stereo not shown) [Example 23] | > 50000 | < 100 |  |  |  | 
CCCCCCCCCCCCCCCCCCCC(O)C(Cc1cc(C(C)(C)C)c(O)c(C(C)(C)C)c1)C(=O)OCC (stereo not shown) [Example 24] | > 50000 | < 100 |  |  |  | 
CCCCCCCCCCCCCCCCCCCC(O)C(CO)Cc1cc(C(C)(C)C)c(O)c(C(C)(C)C)c1 (stereo not shown) [Example 25] | > 50000 | < 100 |  |  |  | 
CCCCCCCCCCCCCCCCCCCC1OC(C)(C)OCC1Cc1cc(C(C)(C)C)c(O)c(C(C)(C)C)c1 (stereo not shown) [Example 26] | > 50000 | < 100 |  |  |  | 
CCCCCCCCCCCCCCCCCCCC(O)C(Cc1cc(C(C)(C)C)c(O)c(C(C)(C)C)c1)C(=O)O (stereo not shown) [Example 27] | > 1000 | > 10000 |  |  |  | 
CCCCCCCCCCCCCCCCCCCC(=O)C(=Cc1cc(C(C)(C)C)c(O)c(C(C)(C)C)c1)C(=O)OCC [Example 28] | > 50000 | < 100 |  |  |  | 
CC(C)CCC[C@@H](C)[C@H]1CC[C@H]2[C@@H]3CC=C4C[C@@H](OCCOC5=C(O)[C@@H]([C@@H](O)CO)OC5=O)CC[C@]4(C)[C@H]3CC[C@]12C [Example 33] | > 1000 | < 100 | 13 |  |  | 
CCCCCCCCCCCCCCCCCC(=O)OC[C@H](O)[C@H]1OC(=O)C(OP(=O)(OCC)OCC)=C1O [Example 34] | > 1000 | < 100 |  |  |  | 
CCCCCCCCCCCCCCCCCC(=O)OC[C@H](OC(=O)CCCCCCCCCCCCCCCCC)[C@H]1OC(=O)C(OP(=O)(OCC)OCC)=C1O [Example 35] | > 1000 | < 100 |  |  |  | 
CCCCCCCCCCCCCCCCCCC(COCCOC1=C(O)C(C(O)CO)OC1=O)COCCOC1=C(O)C(C(O)CO)OC1=O (stereo not shown) [Example 36] | > 10000 | > 10000 | 17 |  |  | outstandingly suitable for use in aqueous oil emulsions
CCCCCCCCCCCCCCCCCCP(=O)(OC1=C(O)C([C@@H](O)CO)OC1=O)OC1=C(O)C([C@@H](O)CO)OC1=O (stereo partly shown) [Example 37] | > 1000 | > 10000 |  |  |  | 
CC(C)CCCC(C)C1CC[C@H]2C3CC=C4CC(OC(=O)CCCCC(S)CCS)CC[C@]4(C)[C@H]3CC[C@]12C (stereo partly shown) [Example 46] | > 50000 | < 100 |  |  |  | 
CC(CCC(=O)NCCCNC(=O)CCCCC(S)CCS)C1CC[C@H]2C3CC[C@@H]4C[C@H](O)CC[C@]4(C)[C@H]3C[C@H](O)[C@]12C (stereo partly shown) [Example 48] | > 50000 | < 100 |  |  |  | 
CCCCCCCCCCCCCCCCCCOC(=O)CCCCC(S)CCS (stereo not shown) [Example 50] | > 50000 | < 100 |  | possible to prevent the oxidation of SA-PC Just as effectively |  | 
CCCCCCCCCCCCCCCCCCOC(=O)CCCCC1CCSS1 (stereo not shown) [Example 51] | > 50000 | < 100 |  | possible to prevent the oxidation of SA-PC Just as effectively |  | 
CC(C)CCCC(C)C1CC[C@H]2C3CC=C4CC(OC(=O)CCCCC5CCSS5)CC[C@]4(C)[C@H]3CC[C@]12C (stereo partly shown) [Example 53] | > 50000 | < 100 |  |  |  | 
O=C(O)c1cc(O)c(O)c(O)c1 [Gallic acid, reference compound] | < 100 | > 10000 |  |  |  | 
